Experimental data taken from patent US20240417369A1, “RXFP1 AGONISTS” (BRISTOL-MYERS SQUIBB COMPANY, priority 2021, published 2024).

Target: T1, human RXFP1 (Homo sapiens, UniProt Q9HBX9)
T1 construct: expressed in transfected cells
T1 sequence (Q9HBX9 1-757): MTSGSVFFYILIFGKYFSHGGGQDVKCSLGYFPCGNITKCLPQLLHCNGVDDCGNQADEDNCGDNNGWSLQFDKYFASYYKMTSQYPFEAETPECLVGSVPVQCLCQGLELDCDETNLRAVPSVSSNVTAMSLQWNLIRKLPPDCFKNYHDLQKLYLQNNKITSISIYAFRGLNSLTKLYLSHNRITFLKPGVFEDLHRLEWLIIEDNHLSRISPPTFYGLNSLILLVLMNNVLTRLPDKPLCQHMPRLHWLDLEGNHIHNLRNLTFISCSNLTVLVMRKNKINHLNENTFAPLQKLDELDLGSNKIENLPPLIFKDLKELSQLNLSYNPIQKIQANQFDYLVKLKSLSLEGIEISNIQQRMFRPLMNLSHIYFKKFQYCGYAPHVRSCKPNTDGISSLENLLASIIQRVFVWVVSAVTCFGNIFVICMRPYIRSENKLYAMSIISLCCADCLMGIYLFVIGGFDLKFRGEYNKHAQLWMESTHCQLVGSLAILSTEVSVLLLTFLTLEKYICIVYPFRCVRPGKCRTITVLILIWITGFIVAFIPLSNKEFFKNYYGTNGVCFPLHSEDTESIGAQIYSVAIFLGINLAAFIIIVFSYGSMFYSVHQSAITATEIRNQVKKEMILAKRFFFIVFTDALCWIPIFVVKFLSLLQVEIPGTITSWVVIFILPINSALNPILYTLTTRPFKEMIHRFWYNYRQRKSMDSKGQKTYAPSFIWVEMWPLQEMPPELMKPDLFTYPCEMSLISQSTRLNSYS
Experiment: cAMP hRXFP1 HEK293 Assay
Format: cell-based
Details: HEK293 cells stably expressing human RXFP1; 30 min at room temperature; HTRF cAMP
Method: RXFP1 Cyclic Adenosine Monophosphate (cAMP) Assays. Human embryonic kidney cells 293 (HEK293) cells and HEK293 cells stably expressing human RXFP1, were cultured in MEM medium supplemented with 10% qualified FBS, and 300 μg/ml hygromycin (Life Technologies). Cells were dissociated and suspended in assay buffer. The assay buffer was HBSS buffer (with calcium and magnesium) containing 20 mM HEPES. 0.05% BSA, and 0.5 mM IBMX. Cells (3000 cells per well, except 1500 cell per well for HEK293 cells stably expressing human RXFP1) were added to 384-well Proxiplates (Perkin-Elmer). Cells were immediately treated with test compounds in DMSO (2% final) at final concentrations in the range of 0.010 nM to 50 μM. Cells were incubated for 30 min at room temperature. The level of intracellular cAMP was determined using the HTRF HiRange cAMP assay reagent kit (Cisbio) according to manufacturer's instructions. Solutions of cryptate conjugated anti-cAMP and d2 fluorophore-labelled cAMP were made in a supplied lysis buffer separately. Upon completion of the reaction, the cells were lysed with equal volume of the d2-cAMP solution and anti-cAMP solution. After a 1 h room temperature incubation, time-resolved fluorescence intensity was measured using the Envision (Perkin-Elmer) at 400 nm excitation and dual emission at 590 nm and 665 nm. A calibration curve was constructed with an external cAMP standard at concentrations ranging from 2.7 μM to 0.1 μM by plotting the fluorescent intensity ratio from 665 nm emission to the intensity from the 590 nm emission against cAMP concentrations. The potency and activity of a compound to inhibit cAMP production was then determined by fitting to a 4-parametric logistic equation from a plot of cAMP level versus compound concentrations.
The examples disclosed below were tested in the human RXFP1 (hRXFP1) HEK293 cAMP assay described above and found to have agonist activity. Table I lists EC50 values in the hRXFP1 HEK293 cAMP assay measured for the examples.

Row | Compound | EC50 [nM]
1 | O=C(O)c1cccc(C2CCCC(C(=O)N[C@H]3[C@@H](C(=O)Nc4ccc(F)c(C(F)(F)F)c4)[C@H]4CC[C@@H]3/C4=C\C(F)(F)F)C2)c1 (single isomer, unassigned) [Example 1] | 930
2 | O=C(O)c1cccc(C2CCCC(C(=O)N[C@H]3[C@@H](C(=O)Nc4ccc(F)c(C(F)(F)F)c4)[C@H]4CC[C@@H]3/C4=C\C(F)(F)F)C2)c1 (single isomer, unassigned) [Example 2] | 300
3 | O=C(O)c1cccc(C2CCCC(C(=O)N[C@H]3[C@@H](C(=O)Nc4ccc(F)c(C(F)(F)F)c4)[C@H]4CC[C@@H]3/C4=C\C(F)(F)F)C2)c1 (single isomer, unassigned) [Example 3] | 510
4 | O=C(O)c1cccc(C2CCC(C(=O)N[C@H]3[C@@H](C(=O)Nc4ccc(F)c(C(F)(F)F)c4)[C@H]4CC[C@@H]3/C4=C\C(F)(F)F)C2)c1 (single isomer, unassigned) [Example 9] | 510
5 | O=C(O)c1cccc(C2CCC(C(=O)NC3C4CCC(C4=CC(F)(F)F)C3C(=O)Nc3ccc(F)c(C(F)(F)F)c3)C2)c1 (single isomer, unassigned) [Example 10] | 2000
6 | O=C(NC1C2CCC(/C2=C/C2CC2)[C@@H]1C(=O)Nc1ccc(F)c(C(F)(F)F)c1)C1CCC[C@H](C2=NOC3COCC23)C1 (single isomer, unassigned) [Example 12] | 350
7 | O=C(N[C@@H]1C2CCC(/C2=C/C2CC2)[C@@H]1C(=O)Nc1ccc(F)c(C(F)(F)F)c1)C1CCC[C@H](C2=NOC3COCC23)C1 (single isomer, unassigned) [Example 13] | 2900
8 | O=C(N[C@@H]1C2CCC(/C2=C/C2CC2)[C@@H]1C(=O)Nc1ccc(F)c(C(F)(F)F)c1)C1CCC[C@H](C2=NOC3COCC23)C1 (single isomer, unassigned) [Example 14] | 1600
9 | O=C(N[C@@H]1C2CCC(/C2=C/C2CC2)[C@@H]1C(=O)Nc1ccc(F)c(C(F)(F)F)c1)C1CCC[C@H](C2=NOC3COCC23)C1 (single isomer, unassigned) [Example 15] | 1400
10 | O=C(N[C@H]1[C@@H](C(=O)Nc2ccc(F)c(C(F)(F)F)c2)[C@H]2CC[C@@H]1/C2=C\C1CC1)C1CCC[C@@H](C2=NOC3COCC23)C1 (single isomer, unassigned) [Example 17] | 1600
11 | O=C(N[C@H]1[C@@H](C(=O)Nc2ccc(F)c(C(F)(F)F)c2)[C@H]2CC[C@@H]1/C2=C\C1CC1)C1CCC[C@@H](C2=NOC3COCC23)C1 (single isomer, unassigned) [Example 18] | 1000
12 | O=C(N[C@H]1[C@@H](C(=O)Nc2ccc(F)c(C(F)(F)F)c2)[C@H]2CC[C@@H]1/C2=C\C1CC1)C1CCC[C@@H](C2=NOC3COCC23)C1 (single isomer, unassigned) [Example 19] | 2000
13 | O=C(CCCCCCCO)N[C@@H]1C2CCC(/C2=C/C2CC2)C1C(=O)Nc1ccc(F)c(C(F)(F)F)c1 (stereo in doubt) [Example 5, (1R,2R,3R,4R,Z)-7-(cyclopropylmethylene)-N-(4-fluoro-3-(trifluoromethyl)phenyl)-3-(8-hydroxyoctanamido)bicyclo [2.2.1]heptane-2-carboxamide] | 1200
14 | COc1ccc(Cl)cc1NC(=O)N[C@H]1[C@@H](C(=O)Nc2ccc(F)c(C(F)(F)F)c2)[C@H]2CC[C@@H]1/C2=C\C(F)(F)F [Example 4, (1R,2S,3R,4R,Z)-3-(3-(5-chloro-2-methoxyphenyl)ureido)-N-(4-fluoro-3-(trifluoromethyl)phenyl)-7-(2,2,2-trifluoroethylidene)bicyclo[2.2.1]heptane-2-carboxamide] | 3800
15 | CO[C@H](C(=O)N[C@H]1[C@@H](C(=O)Nc2ccc(F)c(C(F)(F)F)c2)[C@H]2CC[C@@H]1/C2=C\C(F)(F)F)c1ccccc1 [Example 6, (1R,2S,3R,4R,Z)-N-(4-fluoro-3-(trifluoromethyl)phenyl)-3-((S)-2-methoxy-2-phenylacetamido)-7-(2,2,2-trifluoroethylidene)bicyclo [2.2.1]heptane-2-carboxamide] | 3300
16 | O=C(N[C@H]1[C@@H](C(=O)Nc2ccc(F)c(C(F)(F)F)c2)[C@H]2CC[C@@H]1/C2=C\C(F)(F)F)C(O)c1cccc(Oc2ccccc2)c1 (stereo partly drawn) [Example 7, (1R,2S,3R,4R,Z)-N-(4-fluoro-3-(trifluoromethyl)phenyl)-3-(2-hydroxy-2-(3-phenoxyphenyl)acetamido)-7-(2,2,2-trifluoroethylidene)bicyclo [2.2.1]heptane-2-carboxamide] | 3400
17 | O=C(O)CCCCCCC(=O)N[C@H]1[C@@H](C(=O)Nc2ccc(F)c(C(F)(F)F)c2)[C@H]2CC[C@@H]1/C2=C\C1CC1 [Example 8, 8-(((1R,2R,3S,4R,Z)-7-(cyclopropylmethylene)-3-((4-fluoro-3-(trifluoromethyl)phenyl)carbamoyl)bicyclo[2.2.1]heptan-2-yl)amino)-8-oxooctanoic acid] | 4700
18 | O=C(O)c1cccc(C2CCC(C(=O)N[C@H]3[C@@H](C(=O)Nc4ccc(F)c(C(F)(F)F)c4)[C@H]4CC[C@@H]3/C4=C\C(F)(F)F)CC2)c1 (some centres unmarked) [Example 11] | 4300
19 | O=C(N[C@H]1[C@@H](C(=O)Nc2ccc(F)c(C(F)(F)F)c2)[C@H]2CC[C@@H]1/C2=C\C1CC1)C1CCC[C@@H](C2=NOC3COCC23)C1 (stereo partly drawn) [Example 16, (1R,2S,3R,4R,7Z)-3-[(3R)-3-{3aH,4H,6H,6aH-furo[3,4-d][1,2]oxazol-3-yl}cyclohexaneamido]-7-(cyclopropylmethylidene)-N-[4-fluoro-3-(trifluoromethyl)phenyl]bicyclo [2.2.1]heptane-2-carboxamide] | 1000

Test system: not given
Experiment: not given
Details: intravenous (IV) formulation; cited from earlier work

Row | Compound | first-phase pharmacokinetic half-life [min]
20 | Serelaxin | 5.4
